Values quoted from earlier work as cited in US20250345298A1, “APOE4 CORRECTORS AND METHODS OF USE” (Alzheon, Inc., priority 2022, published 2025).

CC(C)[C@H](N)C(=O)NCCCS(=O)(=O)O [ALZ-801, valyl-3-amino-1-propanesulfonic acid]
safety in human subjects: safe

NCCCS(=O)(=O)O [Tramiprosate, 3-amino-1-propanesulfonic acid]
efficacy in Alzheimer's disease trials (human clinical trials for AD): suggested efficacy in at least some patients
safety in human subjects: safe
